Among the data in ChEMBL document CHEMBL1201862, “PubChem BioAssay data set” (2004) are AC50 and IC50 values, retold here.

For assay [1], the target named is T1, Microphthalmia-associated transcription factor (Homo sapiens, UniProt O75030).
T1 sequence (O75030 whole entry): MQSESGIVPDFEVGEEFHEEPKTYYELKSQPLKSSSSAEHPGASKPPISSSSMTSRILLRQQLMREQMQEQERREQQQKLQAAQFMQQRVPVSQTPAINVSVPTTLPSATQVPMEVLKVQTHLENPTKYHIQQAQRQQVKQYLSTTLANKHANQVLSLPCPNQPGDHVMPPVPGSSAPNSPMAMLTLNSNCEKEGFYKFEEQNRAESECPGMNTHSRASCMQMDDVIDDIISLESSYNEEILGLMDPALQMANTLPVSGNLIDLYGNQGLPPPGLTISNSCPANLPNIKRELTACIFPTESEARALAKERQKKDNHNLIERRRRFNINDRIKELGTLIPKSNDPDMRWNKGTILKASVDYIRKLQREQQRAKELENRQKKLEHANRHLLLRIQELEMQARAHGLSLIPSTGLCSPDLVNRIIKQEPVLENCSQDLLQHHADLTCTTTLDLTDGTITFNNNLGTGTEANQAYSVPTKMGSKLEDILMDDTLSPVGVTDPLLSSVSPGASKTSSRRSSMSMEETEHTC
The assay can be described thus: TRPM1 promoter luciferase signal decrease, dose response, MITF inhibitor project, cell-based, SK-MEL-5, cherry-picked, set 3 (AID 493073).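 Further: SK-MEL-5 melanoma cells with luciferase driven by the MITF target TRPM1 promoter.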 Type of assay: functional.

Another assay concerns the target Hexokinase HKDC1 (Homo sapiens, UniProt Q2TB90). Kind of assay: HKDC1 hexokinase inhibitors, dose response, biochemical, W721R variant (AID 504729). Type of assay: functional.
Assay [2] has as its target Tyrosyl-DNA phosphodiesterase 2 (Homo sapiens, UniProt O95551). Kind of assay: human TDP2 enzyme inhibitors, dose response, biochemical, epi absorbance, IC50 (AID 743297).

Active and inactive are the calls of the source.

Chain of Hexokinase HKDC1 (Q2TB90 whole entry): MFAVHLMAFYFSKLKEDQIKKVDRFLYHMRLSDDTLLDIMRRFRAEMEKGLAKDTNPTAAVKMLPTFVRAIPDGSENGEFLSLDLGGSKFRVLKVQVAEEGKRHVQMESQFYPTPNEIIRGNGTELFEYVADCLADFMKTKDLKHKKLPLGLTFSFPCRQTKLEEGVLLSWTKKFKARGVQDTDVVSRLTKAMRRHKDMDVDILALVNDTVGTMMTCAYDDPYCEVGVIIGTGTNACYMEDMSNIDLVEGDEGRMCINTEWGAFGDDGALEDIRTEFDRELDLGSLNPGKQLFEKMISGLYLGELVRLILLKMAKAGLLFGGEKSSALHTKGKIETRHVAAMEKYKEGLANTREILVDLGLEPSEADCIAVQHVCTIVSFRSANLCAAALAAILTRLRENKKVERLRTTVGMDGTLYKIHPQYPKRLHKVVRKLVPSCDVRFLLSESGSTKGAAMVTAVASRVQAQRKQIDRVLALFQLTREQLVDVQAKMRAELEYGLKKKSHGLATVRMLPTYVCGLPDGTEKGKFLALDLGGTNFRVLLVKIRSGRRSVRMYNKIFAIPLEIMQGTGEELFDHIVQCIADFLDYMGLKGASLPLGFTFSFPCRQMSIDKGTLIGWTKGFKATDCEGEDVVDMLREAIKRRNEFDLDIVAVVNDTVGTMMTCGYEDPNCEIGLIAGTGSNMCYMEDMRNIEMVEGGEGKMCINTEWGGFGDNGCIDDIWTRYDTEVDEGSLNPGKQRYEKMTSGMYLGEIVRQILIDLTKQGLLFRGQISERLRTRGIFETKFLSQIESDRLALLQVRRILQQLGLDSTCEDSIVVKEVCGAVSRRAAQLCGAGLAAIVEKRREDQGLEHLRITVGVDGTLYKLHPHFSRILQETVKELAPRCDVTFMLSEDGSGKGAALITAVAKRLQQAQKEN
Chain of Tyrosyl-DNA phosphodiesterase 2 (O95551 whole entry): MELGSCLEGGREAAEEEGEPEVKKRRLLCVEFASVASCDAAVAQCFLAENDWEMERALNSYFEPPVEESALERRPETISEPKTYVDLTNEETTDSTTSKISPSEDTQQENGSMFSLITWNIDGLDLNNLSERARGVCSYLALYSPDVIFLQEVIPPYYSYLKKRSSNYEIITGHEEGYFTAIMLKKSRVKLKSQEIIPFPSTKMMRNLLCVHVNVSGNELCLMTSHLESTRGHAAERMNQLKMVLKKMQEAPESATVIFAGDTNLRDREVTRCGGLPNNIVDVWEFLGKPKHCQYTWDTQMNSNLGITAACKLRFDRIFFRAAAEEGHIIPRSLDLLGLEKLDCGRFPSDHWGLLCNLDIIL

For `COC1=C(c2ccccc2)C(=O)c2ccccc2C1=O`, in assay [1], the AC50 was 9.05 µM (active).

As to `O=C1C(Cl)=C(N2CCC(C(=O)O)CC2)C(=O)c2ccccc21`, the IC50 on Hexokinase HKDC1 is 8.29 µM (active).

`COc1cc2c(cc1OC)-c1c(OC)c(OC)cc3c1[C@H](C2)N(C)CC3`: the half-maximal inhibitory concentration (IC50) in assay [2] is 6.22 µM (active).

The term AC50 denotes the concentration giving half of the maximal activity seen. As usually defined, the IC50 is the concentration at which inhibition is half-maximal.
